# Source: patent US11802120B2, “Fused cyclic urea derivatives as CRHR2 antagonist” (RaQualia Pharma Inc., priority 2018, dated 2023)
# Experiments:
# [1] = target: T1, human CRHR2-alpha (Homo sapiens, UniProt Q13324); experiment: cAMP functional assay for human CRHR2 (LANCE Ultra cAMP, TR-FRET); format: cell-based; settings: CHO-K1 cells expressing human CRHR2-alpha, agonist human urocortin2 at EC80, cAMP; read-out: IC50 against CRHR2
# T1 sequence (Q13324 1-411): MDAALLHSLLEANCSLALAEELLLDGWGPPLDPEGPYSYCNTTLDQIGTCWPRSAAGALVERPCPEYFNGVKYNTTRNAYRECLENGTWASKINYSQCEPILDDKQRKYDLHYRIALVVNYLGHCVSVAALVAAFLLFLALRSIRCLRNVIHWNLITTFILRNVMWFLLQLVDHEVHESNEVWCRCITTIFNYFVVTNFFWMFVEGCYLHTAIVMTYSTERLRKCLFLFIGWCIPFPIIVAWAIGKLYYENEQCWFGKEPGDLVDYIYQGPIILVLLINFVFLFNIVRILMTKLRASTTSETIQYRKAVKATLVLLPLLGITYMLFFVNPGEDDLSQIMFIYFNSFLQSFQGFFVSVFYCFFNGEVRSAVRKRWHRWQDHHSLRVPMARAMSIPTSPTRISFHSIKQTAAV
# Outline: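 CHO-K1 cells stably expressing each receptor, serum-starved and cryopreserved, were preincubated with compound 30 min at 25° C in HBSS buffer with 0.5 mM IBMX, pH 7.4, then stimulated 30 min with EC80 agonist (urocortin2 for CRHR2, CRF for CRHR1). cAMP read by TR-FRET; IC50 from percent-inhibition curves.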
# [2] = target: T2, human CRHR1-beta (Homo sapiens, UniProt P34998); experiment: cAMP functional assay for human CRHR1 (LANCE Ultra cAMP, TR-FRET); format: cell-based; settings: CHO-K1 cells expressing human CRHR1-beta, agonist CRF at EC80, cAMP; read-out: IC50 against CRHR1
# T2 sequence (P34998 24-444 isoform P34998-1 limits assumed): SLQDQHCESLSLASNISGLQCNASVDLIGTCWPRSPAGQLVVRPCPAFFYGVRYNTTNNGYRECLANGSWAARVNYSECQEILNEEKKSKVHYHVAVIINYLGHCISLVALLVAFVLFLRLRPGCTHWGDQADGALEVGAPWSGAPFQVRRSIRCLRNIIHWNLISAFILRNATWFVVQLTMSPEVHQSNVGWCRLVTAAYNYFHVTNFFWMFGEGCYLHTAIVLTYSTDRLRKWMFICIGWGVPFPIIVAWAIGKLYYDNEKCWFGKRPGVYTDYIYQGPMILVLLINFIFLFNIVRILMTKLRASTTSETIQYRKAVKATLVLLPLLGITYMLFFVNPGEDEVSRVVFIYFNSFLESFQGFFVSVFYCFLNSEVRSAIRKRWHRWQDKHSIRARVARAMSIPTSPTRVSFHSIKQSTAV
# Experimental: cAMP functional assay for human CRHR1 and CRHR2
# The ability of the compounds of this invention to inhibit either CRHR2 or CRHR1 is assessed by 3′,5′-cyclic adenosine monophosphate (cAMP) production in cells using the LANCE Ultra cAMP assay kit (ParkinElmer), which are designed based on the homogeneous time-resolved fluorescence resonance energy transfer (TR-FRET) immunoassay.
# CHO-K1 (Chinese hamster ovary) cells stably expressing either human CRHR2-alpha (DiscoveRX, Cat. 95-0048C2) or human CRHR1-beta (DiscoveRX, Cat. 95-0047C2) are grown in HAM's F12 media supplemented with 10% fetal bovine serum (FBS), 100 units/mL penicillin, 100 microg/mL hygromycin and 0.5 microg/mL geneticin at 37° C. in 5% CO2 humidified incubator to 80% confluence. After 7 hours starvation treatment in culture media containing 0.1% FBS, the cells are washed with Hanks balanced salt solution (HBSS) and cryopreserved.
# For cAMP assay, frozen cells are thawed and washed with HBSS, followed by resuspended in assay buffer (HBSS containing 0.1% bovine serum albumin, 0.5 mM isobutylmethylxanthine and 5 mM Hepes, pH 7.4) at the appropriate concentration for the assay. The cell suspensions are plated on 384-well microplates (Greiner Bio-One) at a density of 4,000 cells per well. After preincubating the cells with various concentrations of the compounds for 30 min at 25° C., an assay buffer containing EC80 concentration of each agonist is added and the cells are incubated for 30 min at 25° C. Human urocortin2 (Peptide Institute) and CRF (Peptide Institute) are used as agonists for CRHR2 and CRHR1, respectively. For the termination of assay, europium-labeled cAMP tracer and ULight (registered trademark) dye labeled cAMP antibodies, both prepared with Lance-Ultra cAMP detection reagent (Perkin Elmer) are added in the plate and incubate for 60 min at 25° C. After incubation, TR-FRET signal is detected by EnVision plate reader (PerkinElmer). The IC50 values for compounds are calculated from dose-response curves by fitting the percent inhibition using XLfit (ID Business Solutions).
SMILES,IC50 [1] [nM],IC50 [2] [nM]
"Cc1ncc(Cl)cc1C(=O)N[C@H]1CC[C@H](Cn2c(=O)n(-c3ccc(N(C)CCO)nc3)c3ccccc32)CC1 [Example 64, 5-chloro-N-((1r,4r)-4-((3-(6-((2-hydroxyethyl)(methyl)amino)pyridin-3-yl)-2-oxo-2,3-dihydro-1H-benzo[d]imidazol-1-yl)methyl)cyclohexyl)-2-methylnicotinamide]",< 300,< 1000
"Cc1ncc(Cl)cc1C(=O)N[C@H]1CC[C@H](Cn2c(=O)n(-c3ccc(OCCO)nc3)c3ccccc32)CC1 [Example 50, 5-chloro-N-((1r,4r)-4-((3-(6-(2-hydroxyethoxy)pyridin-3-yl)-2-oxo-2,3-dihydro-1H-benzo[d]imidazol-1-yl)methyl)cyclohexyl)-2-methylnicotinamide]",< 300,< 1000
"Cc1ncc(Cl)cc1C(=O)N[C@H]1CC[C@H](Cn2c(=O)n(-c3ccc(N(C)CCCO)nc3)c3ccccc32)CC1 [Example 94, 5-chloro-N-((1r,4r)-4-((3-(6-((3-hydroxypropyl)(methyl)amino)pyridin-3-yl)-2-oxo-2,3-dihydro-1H-benzo[d]imidazol-1-yl)methyl)cyclo-hexyl)-2-methylnicotinamide]",< 300,< 1000
"Cc1ccc(-n2c(=O)n(C[C@H]3CC[C@H](NC(=O)c4cc(Cl)cnc4C)CC3)c3ccccc32)c(C)n1 [Example 32, 5-chloro-N-((1r,4r)-4-((3-(2,6-dimethylpyridin-3-yl)-2-oxo-2,3-dihydro-1H-benzo[d]imidazol-1-yl)methyl)cyclohexyl)-2-methylnicotinamide]",< 300,< 1000
"COc1cc(-n2c(=O)n(C[C@H]3CC[C@H](NC(=O)c4cc(Cl)cnc4C)CC3)c3ccccc32)ccn1 [Example 45, 5-chloro-N-((1r,4r)-4-((3-(2-methoxypyridin-4-yl)-2-oxo-2,3-dihydro-1H-benzo[d]imidazol-1-yl)methyl)cyclohexyl)-2-methylnicotinamide]",< 300,< 1000
"Cc1ncc(Cl)cc1C(=O)N[C@H]1CC[C@H](Cn2c(=O)n(-c3ccc(C(N)=O)nc3)c3ccccc32)CC1 [Example 62, 5-(3-(((1r,4r)-4-(5-chloro-2-methylnicotinamido)cyclohexyl)methyl)-2-oxo-2,3-dihydro-1H-benzo[d]imidazol-1-yl)picolinamide]",< 300,< 1000
"CNc1ccc(-n2c(=O)n(C[C@H]3CC[C@H](NC(=O)c4cc(Cl)cnc4C)CC3)c3ccccc32)cn1 [Example 91, 5-chloro-2-methyl-N-((1r,4r)-4-((3-(6-(methylamino)pyridin-3-yl)-2-oxo-2,3-dihydro-1H-benzo[d]imidazol-1-yl)methyl)cyclohexyl)nicotinamide]",< 300,< 1000
"Cc1ncc(Cl)cc1C(=O)N[C@H]1CC[C@H](Cn2c(=O)n(-c3ccc(N(C)C)nn3)c3ccccc32)CC1 [Example 67, 5-chloro-N-((1r,4r)-4-((3-(6-(dimethylamino)pyridazin-3-yl)-2-oxo-2,3-dihydro-1H-benzo[d]imidazol-1-yl)methyl)cyclohexyl)-2-methylnicotinamide]",< 300,< 1000
"CC(=O)c1ccc(-n2c(=O)n(C[C@H]3CC[C@H](NC(=O)c4cc(Cl)cnc4C)CC3)c3ccccc32)cc1 [Example 18, N((1r,4r)-4-((3-(4-acetylphenyl)-2-oxo-2,3-dihydro-1H-benzo[d]imidazol-1-yl)methyl)cyclohexyl)-5-chloro-2-methylnicotinamide]",< 300,< 1000
"CNC(=O)c1ccc(-n2c(=O)n(C[C@H]3CC[C@H](NC(=O)c4cc(Cl)cnc4C)CC3)c3ccccc32)cn1 [Example 63, 5-(3-(((1r,4r)-4-(5-chloro-2-methylnicotinamido)cyclohexyl)methyl)-2-oxo-2,3-dihydro-1H-benzo[d]imidazol-1-yl)-N-methylpicolinamide]",< 300,< 1000
